In publication PMC10525854 (Biomedicines, 2023) one finds solubility and IC50 data, which are given here for one molecule.

Molecules are shown by their SMILES. Converted amounts (≈) assume the structure as drawn.

What is called solubility is how much of the substance goes into solution per volume. As a reminder, the IC50 is the concentration needed to halve the response being measured. Low values mean higher potency, high ones lower potency.

A short description of data set [1]: Solubility of ACF in different media. Type of data set: physicochemical. Conditions: thermodynamic from solid. The method, then: The mixture was shaken using a vortex mixer (Heidolph Instrument, D-91126 Schwabach, type RZR 2021, Bavaria, Germany) for 15 min, followed by storage at room temperature. After 24 h, the resulting solution was subjected to centrifugation at 3000 rpm for 5 min to separate the clear supernatant. A suitable sample solution was collected and diluted with absolute methanol. The diluted sample was filtered using Whatman 102 filter paper and further diluted with absolute methanol for the determination of the drug concentration in the saturated solution. Analysis of the samples was performed using a UV spectrophotometer (DU 640; Beckman, CA, USA) at a wavelength of 276 nm, with methanol as the blank reference.

Data set [2] has as its system A375 human melanoma cell lines. The data set is described as follows: Cytotoxicity SRB assay. The format is cell-based. The settings on record: A-375, 48 h of incubation (method says 72 h).
Method: Cell viability was assessed by SRB assay as reported [47]. […] Melanoma cells were mixed with TCA (10%) and maintained at 4 °C for 1 h, then washed with D.W. Sulforhodamine B (70 μL) (0.4% w/v) was added and kept for 10 min. Plates were washed by 1% acetic acid 3 times and left to dry overnight. TRIS (150 μL) was added to dissolve the protein-bound SRB stain. Lastly, absorbance was determined by a star Omega microplate reader (BMGLABTECH®-FLUO, Ortenberg, Germany) at 540 nm [48, 49]. Cytotoxicity was expressed as (IC50), which was determined by plotting %viability against the concentration of the drug (five concentrations were used). IC50 values were calculated from the dose–response curve by the PRISM program.

In the case of `O=C(O)COC(=O)Cc1ccccc1Nc1c(Cl)cccc1Cl` [ACF, Aceclofenac], the solubility at 24 h in data set [1] (oil or lipid, citronellol oil, room temperature) is 5.26 mg/mL (≈ 14.9 mM); in data set [1] (organic solvent or mixture, Transcutol HP, room temperature), 300 mg/mL (≈ 848 mM); in data set [1] (Tween 80, room temperature), 62.6 mg/mL (≈ 177 mM); in data set [1] (water, room temperature) it was 0.071 mg/mL (≈ 0.2 mM). The midpoint of inhibition in data set [2], the IC50, lay at 69.3 µg/mL (≈ 0.196 mM).
